Results published in article PMC8691691 (ACS Chemical Neuroscience, 2021).
Like-named read-outs stand apart in the source and are kept apart here.

Experiments:
GlyT2 [1] = target: T1, GlyT2 (Rattus norvegicus, UniProt P58295); assay: [3H]glycine transport by recombinant GlyT2 expressed in COS7 cells; assay type: cell-based; conditions: for Vmax of glycine transport: n = 3; for reversibility of inhibition upon cell washing: washed, transport at 10 μM glycine; for decay of transport inhibition after 1–4 washes: 1 μM inhibitor 10 min, washes with HBS containing NaCl or choline chloride
T1 construct: expressed in transfected cells; host or cells: COS7
T1 sequence (P58295 1-799): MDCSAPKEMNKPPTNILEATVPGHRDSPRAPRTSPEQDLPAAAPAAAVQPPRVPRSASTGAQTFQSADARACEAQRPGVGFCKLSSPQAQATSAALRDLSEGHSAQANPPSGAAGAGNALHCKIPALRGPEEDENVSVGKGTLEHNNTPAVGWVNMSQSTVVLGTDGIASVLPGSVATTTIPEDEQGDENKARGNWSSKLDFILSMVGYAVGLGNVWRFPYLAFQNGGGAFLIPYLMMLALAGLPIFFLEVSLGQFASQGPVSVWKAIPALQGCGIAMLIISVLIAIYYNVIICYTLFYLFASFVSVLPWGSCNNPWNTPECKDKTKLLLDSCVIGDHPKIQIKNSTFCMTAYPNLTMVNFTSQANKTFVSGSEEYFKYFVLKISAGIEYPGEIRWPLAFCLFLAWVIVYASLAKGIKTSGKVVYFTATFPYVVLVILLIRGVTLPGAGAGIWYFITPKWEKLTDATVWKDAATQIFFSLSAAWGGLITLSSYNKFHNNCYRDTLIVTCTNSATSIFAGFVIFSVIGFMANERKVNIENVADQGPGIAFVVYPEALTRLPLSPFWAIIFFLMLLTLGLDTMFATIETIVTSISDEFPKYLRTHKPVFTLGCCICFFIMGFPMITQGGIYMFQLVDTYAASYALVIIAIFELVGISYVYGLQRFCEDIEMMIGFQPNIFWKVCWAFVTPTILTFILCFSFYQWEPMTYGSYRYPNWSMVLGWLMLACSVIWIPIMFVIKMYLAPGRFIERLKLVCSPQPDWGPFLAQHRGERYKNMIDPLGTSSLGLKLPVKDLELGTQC
Protocol: (§1) Substitution mutants were generated with the QuikChange II Site-Directed Mutagenesis kit (Agilent Technologies, Santa Clara, CA, USA), using rGlyT2 or rGlyT1 subcloned in pCDNA3.[47] The complete coding region of all of the constructs was sequenced to verify that only the desired mutation had been introduced. […] COS7 cells were grown and transfected using Turbofect Transfection Reagent (Thermo Fisher Scientific, Waltham, MA, USA), following the manufacturer’s protocol (2 μL reagent/μg of DNA). Cells were incubated for 48 h at 37 °C until used.
(§2) At the end of the desired time (usually 10 min), reactions were washed and terminated by aspiration. […] A nonlinear curve fitting method was used to obtain IC50 values using Graphpad Prism software, version 6.0, Graphpad, San Diego, CA, USA.

GlyT1 [2] = target: T2, GlyT1 (Rattus norvegicus, UniProt P28572); assay: [3H]glycine transport by recombinant GlyT1 expressed in COS7 cells; assay type: cell-based; conditions: 10 μM glycine
T2 construct: expressed in transfected cells; host or cells: COS7
T2 sequence (P28572 1-638): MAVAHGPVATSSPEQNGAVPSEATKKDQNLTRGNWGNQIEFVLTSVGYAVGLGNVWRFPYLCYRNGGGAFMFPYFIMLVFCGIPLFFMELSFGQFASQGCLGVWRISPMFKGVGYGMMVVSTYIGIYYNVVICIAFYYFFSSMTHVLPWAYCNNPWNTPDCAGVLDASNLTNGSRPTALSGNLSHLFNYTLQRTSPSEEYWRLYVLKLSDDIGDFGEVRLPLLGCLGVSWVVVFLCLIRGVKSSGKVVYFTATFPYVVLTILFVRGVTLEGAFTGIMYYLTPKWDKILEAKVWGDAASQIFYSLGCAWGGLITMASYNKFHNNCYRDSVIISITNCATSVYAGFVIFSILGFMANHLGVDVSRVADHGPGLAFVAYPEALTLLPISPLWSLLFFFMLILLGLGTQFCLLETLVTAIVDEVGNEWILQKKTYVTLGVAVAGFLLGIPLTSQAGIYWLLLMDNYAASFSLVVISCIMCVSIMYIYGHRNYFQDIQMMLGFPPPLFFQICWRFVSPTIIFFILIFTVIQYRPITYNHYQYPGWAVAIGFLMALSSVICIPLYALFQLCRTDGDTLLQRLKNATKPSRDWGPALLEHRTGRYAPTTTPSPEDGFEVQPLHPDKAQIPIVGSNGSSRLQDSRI
Protocol: as §1, §2

GlyT1 [3] = conditions: neuronal cultures and brain preparations; cited from earlier work
allodynia = conditions: nerve ligation injury, streptozotocin-induced diabetic pain, complete Freund's adjuvant-induced inflammatory pain; cited from earlier work
GlyT2 [4] = conditions: cited from earlier work
[5] = due to its physiological irreversibility; cited from earlier work
[6] = 1 nM inhibitor, glycine 0.5–500 μM
[7] = 10 nM inhibitor, glycine 0.5–500 μM
[8] = 50 nM inhibitor, glycine 0.5–500 μM
[9] = 100 nM inhibitor, glycine 0.5–500 μM
[10] = IC50, inhibition of glycine transport, COS7 cells, 10 μM glycine

| Structure (SMILES) | Vmax of glycine transport (GlyT2 [1]; [6]) | Vmax of glycine transport (GlyT2 [1]; [7]) | reversibility of inhibition upon cell washing (GlyT2 [1]; 50 nM inhibitor) | Vmax of glycine transport (GlyT2 [1]; [8]) | Vmax of glycine transport (GlyT2 [1]; [9]) | decay of transport inhibition after 1–4 washes (GlyT2 [1]) | IC50 (GlyT2 [1]; [10]) | inhibition type (Eadie–Hofstee plots) (GlyT2 [1]; glycine 0.5–500 μM) | other results |
| --- | --- | --- | --- | --- | --- | --- | --- | --- | --- |
| N[C@@H](COC(c1cccc(F)c1)c1ccccc1OCc1ccccc1)C(=O)O (some centres unmarked) [ALX1393] | 22.3 nmol Gly/mg prot/6 min | 18.8 nmol Gly/mg prot/6 min | eliminated by cell washing | 13.2 nmol Gly/mg prot/6 min | 30.4 nmol Gly/mg prot/6 min | presence of sodium in the washing buffer reduced the washing power | 31 ± 2.7 nM | noncompetitive behavior | IC50 (GlyT2 [1]; 25 mM NaCl, choline chloride substitution, read-out: IC50, inhibition of [3H]-glycine transport, low sodium): 122 ± 20.9 nM; IC50 (GlyT2 [1]; 150 mM NaCl, read-out: IC50, inhibition of [3H]-glycine transport, regular sodium): 21.8 ± 4.1 nM; selectivity for GlyT2 over GlyT1 (GlyT2 [1]; COS7 cells): about 2 orders of magnitude; difference of inhibitor EC50 at every glycine concentration from its value at 10 μM glycine (GlyT2 [1]; glycine 0.5–500 μM): no more than 30%; IC50, inhibition of glycine transport by GlyT1 (GlyT1 [2]): low μM range; concentrations at which GlyT1 is inhibited (GlyT1 [3]): 0.5 to 1 µM |
| COc1cc(C(=O)NCC2(N(C)C)CCCC2)cc(OC)c1OCc1ccccc1 [ORG25543, N-[[1-(dimethylamino)cyclopentyl]methyl]-3,5-dimethoxy-4-(phenylmethoxy)benzamide] | 24.6 nmol Gly/mg prot/6 min | 23.8 nmol Gly/mg prot/6 min | irreversible inhibition | 18.6 nmol Gly/mg prot/6 min | 11.5 nmol Gly/mg prot/6 min | no inhibition decay was observed | 17.7 ± 4.6 nM | mainly noncompetitive behavior | IC50 (GlyT2 [1]; IC50 (Table S1), wtGlyT2, 10 μM glycine as in Figs. 4 and 5): 18 ± 5 nM; IC50 (GlyT2 [1]; IC50, inhibition of [3H]-glycine transport, low sodium, 25 mM NaCl, choline chloride substitution): 51.2 ± 12.3 nM; IC50 (GlyT2 [1]; IC50, inhibition of [3H]-glycine transport, regular sodium, 150 mM NaCl): 23.8 ± 7.1 nM; selectivity for GlyT2 (in words) (GlyT2 [1]; compared with ALX1393, Figure 2B): higher selectivity for GlyT2; effect on allodynia (allodynia): reduces allodynia; reversibility of GlyT2 inhibition (GlyT2 [4]): irreversible GlyT2 inhibitor; toxicity in animals [5]: generates toxicity in animals |
